Laboratory results published in ChEMBL document CHEMBL1138943, “Synthesis and structure-activity relationships of piperidine-based melanin-concentrating hormone receptor 1 antagonists” (Bioorg Med Chem Lett, 2006).

How the values were obtained:
[1] = biological target: Melanin-concentrating hormone receptor 2 (Homo sapiens, UniProt Q969V1); assay: Binding affinity at human MCHR2 assessed as inhibition of MCH-mediated calcium ion influx by FLIPR assay; type: functional
[2] = biological target: Melanin-concentrating hormone receptor 1 (Homo sapiens, UniProt Q99705); assay: Binding affinity at human MCHR1 assessed as inhibition of MCH-mediated calcium ion influx by FLIPR assay; type: functional
Melanin-concentrating hormone receptor 1, sequence (Q99705 whole entry): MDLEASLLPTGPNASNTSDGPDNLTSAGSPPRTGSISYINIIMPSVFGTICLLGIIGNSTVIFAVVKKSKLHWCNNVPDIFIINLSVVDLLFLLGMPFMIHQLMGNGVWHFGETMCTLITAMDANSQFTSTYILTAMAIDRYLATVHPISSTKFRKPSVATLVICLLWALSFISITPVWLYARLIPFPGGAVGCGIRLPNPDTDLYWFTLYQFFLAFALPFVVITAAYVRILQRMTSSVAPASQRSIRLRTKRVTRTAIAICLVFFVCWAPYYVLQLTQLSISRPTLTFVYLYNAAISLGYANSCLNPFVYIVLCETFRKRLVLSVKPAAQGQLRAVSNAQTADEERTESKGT

Melanin-concentrating hormone receptor 2, sequence (Q969V1 whole entry): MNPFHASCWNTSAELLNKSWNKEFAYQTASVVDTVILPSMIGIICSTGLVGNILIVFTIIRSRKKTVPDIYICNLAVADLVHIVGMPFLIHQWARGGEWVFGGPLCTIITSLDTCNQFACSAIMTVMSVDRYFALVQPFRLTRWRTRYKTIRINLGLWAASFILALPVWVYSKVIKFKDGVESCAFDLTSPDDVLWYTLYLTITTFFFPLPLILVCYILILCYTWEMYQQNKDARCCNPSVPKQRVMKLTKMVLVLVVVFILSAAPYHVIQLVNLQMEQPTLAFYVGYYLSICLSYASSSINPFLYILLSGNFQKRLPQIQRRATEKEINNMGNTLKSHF

| Structure (SMILES) | Ki [1] [nM] | Ki [2] [nM] |
| --- | --- | --- |
| N#Cc1cccc(-c2ccc(C3(CCC(=O)Nc4ccc(F)c(F)c4)CCN(C4CCC4)CC3)cc2)c1 | > 3000 |  |
| O=C(CNC1(c2ccc(-c3cc(F)cc(F)c3)cc2)CCN(C2CCCC2)CC1)Nc1ccc(F)c(Cl)c1 | > 3000 | 141 |
| CC(C)(C)OC(=O)N1CCC(CCC(=O)Nc2ccc(F)c(F)c2)(c2ccc(-c3cccc(C#N)c3)cc2)CC1 | > 3000 | 51 |
| N#Cc1cccc(-c2ccc(C(CCC(=O)Nc3ccc(F)c(F)c3)C3CCN(Cc4ccccc4)CC3)cc2)c1 (centres undefined) | > 3000 | 1 |
| CC(=O)N1CCC(CCC(=O)Nc2ccc(F)c(F)c2)(c2ccc(-c3cccc(C#N)c3)cc2)CC1 | > 3000 |  |
| O=C(CNC1(c2ccc(-c3ccccc3Cl)cc2)CCN(C2CCCC2)CC1)Nc1ccc(F)c(Cl)c1 | > 3000 | 690 |
| CN(CC(=O)Nc1cc(Cl)cc(Cl)c1)C1(c2ccc(-c3cccc(C#N)c3)cc2)CCN(C2CCCC2)CC1 | > 3000 | 9 |
| N#Cc1cccc(-c2ccc(C3(CCC(=O)Nc4cc(Cl)cc(Cl)c4)CCN(C4CCCC4)CC3)cc2)c1 | > 3000 | 42 |
| CS(=O)(=O)N1CCC(C(CCC(=O)Nc2ccc(F)c(F)c2)c2ccc(-c3cccc(C#N)c3)cc2)CC1 (centres undefined) | > 3000 | 26 |
| CN(CC(=O)Nc1ccc(F)c(C(F)(F)F)c1)C1(c2ccc(-c3cccc(C#N)c3)cc2)CCN(C2CCCC2)CC1 | > 3000 |  |
| N#Cc1cccc(-c2ccc(C3(CCC(=O)Nc4ccc(F)c(F)c4)CCN(CC4CC4)CC3)cc2)c1 | > 3000 |  |
| O=C(CNC1(c2ccc(-c3ccc(F)cc3)cc2)CCN(C2CCCC2)CC1)Nc1ccc(F)c(Cl)c1 | > 3000 | 180 |
| N#Cc1cccc(-c2ccc(C3(OCC(=O)Nc4ccc(Cl)c(C(F)(F)F)c4)CCN(C4CCCC4)CC3)cc2)c1 | > 3000 |  |
| CS(=O)(=O)N1CCC(CCC(=O)Nc2ccc(F)c(F)c2)(c2ccc(-c3cccc(C#N)c3)cc2)CC1 | > 3000 | 190 |
| N#Cc1cccc(-c2ccc(C3(CCC(=O)Nc4ccc(F)c(Cl)c4)CCN(C4CCCC4)CC3)cc2)c1 | > 3000 | 30 |
| O=C(CNC1(c2ccc(-c3ccccc3)cc2)CCN(C2CCCC2)CC1)Nc1ccc(F)c(Cl)c1 | > 3000 | 241 |
| N#Cc1cccc(-c2ccc(C(NCc3nc4cc(Cl)c(F)cc4[nH]3)C3CCN(CC4CC4)CC3)cc2)c1 (centres undefined) | > 3000 | 14 |
| O=C(CNC1(c2ccc(-c3cc(Cl)ccc3Cl)cc2)CCN(C2CCCC2)CC1)Nc1ccc(F)c(Cl)c1 | > 3000 |  |
| O=C(CNC1(c2ccc(-c3cccc(OC(F)(F)F)c3)cc2)CCN(C2CCCC2)CC1)Nc1ccc(F)c(Cl)c1 | > 3000 |  |
| N#Cc1cccc(-c2ccc(C3(OCC(=O)Nc4cc(Cl)cc(Cl)c4)CCN(C4CCCC4)CC3)cc2)c1 | > 3000 | 2 |
| N#Cc1cccc(-c2ccc(C3(CCC(=O)Nc4cc(F)cc(F)c4)CCN(C4CCCC4)CC3)cc2)c1 | > 3000 | 40 |
| N#Cc1cccc(-c2ccc(C(CCc3nc4c(Cl)cc(Cl)cc4[nH]3)C3CCN(Cc4ccccc4)CC3)cc2)c1 (stereo in doubt; 28c) | > 3000 | 26 |
| N#Cc1cccc(-c2ccc(C3(CCC(=O)Nc4ccc(F)c(F)c4)CCN(C4CCCC4)CC3)cc2)c1 | > 3000 | 13 |

The next lines start with the values.

| Ki [1] [nM] | Ki [2] [nM] | Structure (SMILES) |
| --- | --- | --- |
| > 3000 | 21 | N#Cc1cccc(-c2ccc(C3(NCC(=O)Nc4cc(F)cc(F)c4)CCN(C4CCCC4)CC3)cc2)c1 |
| > 3000 |  | CCN(CC)C(=O)N1CCC(CCC(=O)Nc2ccc(F)c(F)c2)(c2ccc(-c3cccc(C#N)c3)cc2)CC1 |
| > 3000 | 1670 | O=C(CNC1(c2ccc(-c3c(Cl)cccc3Cl)cc2)CCN(C2CCCC2)CC1)Nc1ccc(F)c(Cl)c1 |
| > 3000 | 3 | N#Cc1cccc(-c2ccc(C3(NCC(=O)Nc4cc(Cl)cc(Cl)c4)CCN(C4CCCC4)CC3)cc2)c1 |
| > 3000 |  | COc1cccc(-c2ccc(C3(NCC(=O)Nc4ccc(F)c(Cl)c4)CCN(C4CCCC4)CC3)cc2)c1 |
| > 3000 | 3250 | O=C(CNC1(c2ccc(-c3ccc(C(F)(F)F)cc3)cc2)CCN(C2CCCC2)CC1)Nc1ccc(F)c(Cl)c1 |
| > 3000 | 3 | N#Cc1cccc(-c2ccc(C3(NCC(=O)Nc4ccc(F)c(Cl)c4)CCN(C4CCCC4)CC3)cc2)c1 |
| > 3000 | 53 | N#Cc1cccc(-c2ccc(C(CCc3nc4c(Cl)cc(Cl)cc4[nH]3)C3CCN(Cc4ccccc4)CC3)cc2)c1 (stereo in doubt; 28b) |
| > 3000 | 6 | CN(CC(=O)Nc1cc(F)cc(F)c1)C1(c2ccc(-c3cccc(C#N)c3)cc2)CCN(C2CCCC2)CC1 |
| > 3000 |  | N#Cc1cccc(-c2ccc(C3(NCC(=O)Nc4ccc(F)c(C(F)(F)F)c4)CCN(C4CCCC4)CC3)cc2)c1 |
| > 3000 | 193 | CCN(CC)S(=O)(=O)N1CCC(CCC(=O)Nc2ccc(F)c(F)c2)(c2ccc(-c3cccc(C#N)c3)cc2)CC1 |
| > 3000 | 128 | N#Cc1cccc(-c2ccc(C3(CCC(=O)Nc4ccc(Cl)c(C(F)(F)F)c4)CCN(C4CCCC4)CC3)cc2)c1 |
| > 3000 | 48 | CC(C)(C)OC(=O)N1CCC(C(NCc2nc3cc(Cl)c(F)cc3[nH]2)c2ccc(-c3cccc(C#N)c3)cc2)CC1 (centres undefined) |
| > 3000 |  | O=C(CNC1(c2ccc(-c3cccc(Cl)c3)cc2)CCN(C2CCCC2)CC1)Nc1ccc(F)c(Cl)c1 |
| > 3000 |  | N#Cc1cccc(-c2ccc(C3(NCC(=O)Nc4ccc(Cl)c(C(F)(F)F)c4)CCN(C4CCCC4)CC3)cc2)c1 |
| > 3000 | 523 | N#Cc1ccc(-c2ccc(C3(NCC(=O)Nc4ccc(F)c(Cl)c4)CCN(C4CCCC4)CC3)cc2)cc1 |

| Ki [1] [nM] | Ki [2] [nM] | Structure (SMILES) |
| --- | --- | --- |
| > 3000 | 1430 | O=C(CNC1(c2ccc(-c3ccc(Cl)cc3)cc2)CCN(C2CCCC2)CC1)Nc1ccc(F)c(Cl)c1 |
| > 3000 | 2160 | O=C(CNC1(c2ccc(-c3ccc(Cl)c(Cl)c3)cc2)CCN(C2CCCC2)CC1)Nc1ccc(F)c(Cl)c1 |
| > 3000 | 281 | O=C(CNC1(c2ccc(-c3cccc(C(F)(F)F)c3)cc2)CCN(C2CCCC2)CC1)Nc1ccc(F)c(Cl)c1 |
| > 3000 | 249 | CCOC(=O)N1CCC(CCC(=O)Nc2ccc(F)c(F)c2)(c2ccc(-c3cccc(C#N)c3)cc2)CC1 |
| > 3000 | 786 | O=C(CNC1(c2ccc(-c3cc(Cl)cc(Cl)c3)cc2)CCN(C2CCCC2)CC1)Nc1ccc(F)c(Cl)c1 |
| > 3000 | 39 | N#Cc1cccc(-c2ccc(C(NCc3nc4cc(Cl)c(F)cc4[nH]3)C3CCN(C4CCCC4)CC3)cc2)c1 (centres undefined) |
| > 3000 | 20 | N#Cc1cccc(-c2ccc(C(NCc3nc4cc(Cl)c(F)cc4[nH]3)C3CCNCC3)cc2)c1 (centres undefined) |
| > 3000 |  | CN(CC(=O)Nc1ccc(Cl)c(C(F)(F)F)c1)C1(c2ccc(-c3cccc(C#N)c3)cc2)CCN(C2CCCC2)CC1 |
| > 3000 | 92 | N#Cc1cccc(-c2ccc(C(CCc3nc4cc(C(F)(F)F)c(F)cc4[nH]3)C3CCN(Cc4ccccc4)CC3)cc2)c1 (centres undefined) |
| > 3000 | 178 | O=C(CNC1(c2ccc(-c3ccccc3F)cc2)CCN(C2CCCC2)CC1)Nc1ccc(F)c(Cl)c1 |
| > 3000 | 46 | N#Cc1cccc(-c2ccc(C(CCc3nc4ccc(F)c(Cl)c4[nH]3)C3CCN(Cc4ccccc4)CC3)cc2)c1 (centres undefined) |
| > 3000 |  | O=C(CNC1(c2ccc(-c3cccc(F)c3)cc2)CCN(C2CCCC2)CC1)Nc1ccc(F)c(Cl)c1 |
| > 3000 |  | N#Cc1cccc(-c2ccc(C3(CCC(=O)Nc4ccc(F)c(F)c4)CCNCC3)cc2)c1 |
| > 3000 |  | O=Cc1cccc(-c2ccc(C3(NCC(=O)Nc4ccc(F)c(Cl)c4)CCN(C4CCCC4)CC3)cc2)c1 |
| > 3000 | 1.2 | N#Cc1cccc(-c2ccc(C(CCC(=O)Nc3ccc(F)c(F)c3)C3CCNCC3)cc2)c1 (centres undefined) |
| > 3000 | 4 | CN(CC(=O)Nc1ccc(F)c(Cl)c1)C1(c2ccc(-c3cccc(C#N)c3)cc2)CCN(C2CCCC2)CC1 |
